Reference: PMC4232273 (Angewandte Chemie (International Ed. in English), 2014)

Target: New Delhi metallo-β-lactamase subclass 1 (NDM-1) (Klebsiella pneumoniae, UniProt C7C422)
Test: 1H NMR monitoring of hydrolysis in E. coli cells expressing NDM-1
Type: cell-based

Chain of New Delhi metallo-β-lactamase subclass 1 (NDM-1) (C7C422 29-270, looked up): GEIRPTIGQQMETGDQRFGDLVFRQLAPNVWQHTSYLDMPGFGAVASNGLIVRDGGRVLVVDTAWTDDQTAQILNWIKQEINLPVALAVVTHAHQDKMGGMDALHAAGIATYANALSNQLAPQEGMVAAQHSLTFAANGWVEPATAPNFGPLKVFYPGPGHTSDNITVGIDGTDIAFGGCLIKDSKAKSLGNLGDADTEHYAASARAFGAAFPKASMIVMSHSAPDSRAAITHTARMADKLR

C[C@@H](O)[C@H]1C(=O)N2C(C(=O)O)=C(SCCN=CN)C[C@H]12 [imipenem]
1H NMR monitoring of hydrolysis in E. coli cells expressing NDM-1: These were readily hydrolyzed by the NDM-1 E. coli cells within an hour or so under our experimental conditions
